Results from ChEMBL document CHEMBL5291721, “A preclinical secondary pharmacology resource illuminates target-adverse drug reaction associations of marketed drugs” (Nat Commun, 2023).

What was measured:
Thromboxane A2 receptor [1] = target: T1, Thromboxane A2 receptor (Homo sapiens, UniProt P21731); type: functional, cell-based
T1 sequence (P21731 whole entry): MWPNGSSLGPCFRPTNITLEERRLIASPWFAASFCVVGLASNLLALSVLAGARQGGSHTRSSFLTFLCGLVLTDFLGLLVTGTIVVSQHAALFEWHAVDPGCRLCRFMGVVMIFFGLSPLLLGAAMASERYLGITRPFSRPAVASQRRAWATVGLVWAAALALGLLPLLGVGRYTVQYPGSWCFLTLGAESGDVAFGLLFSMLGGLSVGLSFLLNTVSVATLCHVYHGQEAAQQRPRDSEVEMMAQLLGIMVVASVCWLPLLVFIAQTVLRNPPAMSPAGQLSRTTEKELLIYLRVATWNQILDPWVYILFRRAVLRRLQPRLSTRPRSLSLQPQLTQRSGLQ

[2] = target: Sodium-dependent serotonin transporter (Homo sapiens, UniProt P31645)
Sodium-dependent serotonin transporter, sequence (P31645 whole entry): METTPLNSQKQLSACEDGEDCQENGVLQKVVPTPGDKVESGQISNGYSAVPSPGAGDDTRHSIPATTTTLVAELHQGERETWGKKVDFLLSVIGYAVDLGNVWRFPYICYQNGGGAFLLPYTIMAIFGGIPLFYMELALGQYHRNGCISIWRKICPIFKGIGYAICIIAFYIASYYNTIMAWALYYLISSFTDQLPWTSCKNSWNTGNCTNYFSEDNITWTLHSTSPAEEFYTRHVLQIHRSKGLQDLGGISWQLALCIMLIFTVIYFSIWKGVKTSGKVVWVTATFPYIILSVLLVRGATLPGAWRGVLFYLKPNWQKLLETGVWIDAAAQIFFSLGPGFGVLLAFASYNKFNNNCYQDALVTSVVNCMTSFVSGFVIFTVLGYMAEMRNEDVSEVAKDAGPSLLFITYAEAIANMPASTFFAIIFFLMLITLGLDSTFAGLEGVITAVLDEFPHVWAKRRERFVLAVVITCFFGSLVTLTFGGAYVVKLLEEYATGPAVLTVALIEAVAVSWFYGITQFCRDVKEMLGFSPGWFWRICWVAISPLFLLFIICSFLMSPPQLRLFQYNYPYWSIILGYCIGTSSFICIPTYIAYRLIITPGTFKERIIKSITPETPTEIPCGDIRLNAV

[3] = target: 5-hydroxytryptamine receptor 2B (Homo sapiens, UniProt P41595); type: functional, cell-based
5-hydroxytryptamine receptor 2B, sequence (P41595 whole entry): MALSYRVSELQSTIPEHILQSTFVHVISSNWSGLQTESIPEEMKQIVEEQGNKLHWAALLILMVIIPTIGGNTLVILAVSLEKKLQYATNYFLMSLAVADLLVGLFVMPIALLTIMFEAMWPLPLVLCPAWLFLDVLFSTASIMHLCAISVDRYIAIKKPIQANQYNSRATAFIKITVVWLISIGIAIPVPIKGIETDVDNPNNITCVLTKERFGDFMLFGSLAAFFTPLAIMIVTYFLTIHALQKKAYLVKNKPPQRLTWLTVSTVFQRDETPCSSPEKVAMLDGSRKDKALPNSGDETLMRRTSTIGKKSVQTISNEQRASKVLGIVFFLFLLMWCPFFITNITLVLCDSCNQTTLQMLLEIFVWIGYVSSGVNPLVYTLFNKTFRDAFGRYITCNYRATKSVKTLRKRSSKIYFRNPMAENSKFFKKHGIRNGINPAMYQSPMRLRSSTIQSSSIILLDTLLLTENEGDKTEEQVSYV

[4] = target: T2, Prostaglandin G/H synthase 1 (Homo sapiens, UniProt P23219); type: functional
T2 sequence (P23219 whole entry): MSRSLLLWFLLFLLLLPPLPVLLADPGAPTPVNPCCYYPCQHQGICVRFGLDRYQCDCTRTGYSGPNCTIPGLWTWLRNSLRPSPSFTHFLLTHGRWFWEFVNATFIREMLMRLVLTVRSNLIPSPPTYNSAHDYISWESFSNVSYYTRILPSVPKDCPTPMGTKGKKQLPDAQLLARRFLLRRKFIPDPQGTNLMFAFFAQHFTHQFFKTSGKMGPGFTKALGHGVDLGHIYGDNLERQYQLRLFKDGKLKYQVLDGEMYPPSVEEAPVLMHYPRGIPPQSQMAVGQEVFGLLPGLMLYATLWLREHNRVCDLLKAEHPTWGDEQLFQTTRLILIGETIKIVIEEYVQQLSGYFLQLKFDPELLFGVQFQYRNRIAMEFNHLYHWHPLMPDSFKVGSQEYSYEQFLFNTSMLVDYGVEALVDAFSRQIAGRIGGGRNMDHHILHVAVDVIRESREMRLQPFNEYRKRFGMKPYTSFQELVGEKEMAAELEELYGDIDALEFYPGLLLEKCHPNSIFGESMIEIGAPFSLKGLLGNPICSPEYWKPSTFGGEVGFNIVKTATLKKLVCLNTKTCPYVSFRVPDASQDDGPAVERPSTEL

[5] = target: cGMP-inhibited 3',5'-cyclic phosphodiesterase 3A (Homo sapiens, UniProt Q14432); type: functional
cGMP-inhibited 3',5'-cyclic phosphodiesterase 3A, sequence (Q14432 whole entry): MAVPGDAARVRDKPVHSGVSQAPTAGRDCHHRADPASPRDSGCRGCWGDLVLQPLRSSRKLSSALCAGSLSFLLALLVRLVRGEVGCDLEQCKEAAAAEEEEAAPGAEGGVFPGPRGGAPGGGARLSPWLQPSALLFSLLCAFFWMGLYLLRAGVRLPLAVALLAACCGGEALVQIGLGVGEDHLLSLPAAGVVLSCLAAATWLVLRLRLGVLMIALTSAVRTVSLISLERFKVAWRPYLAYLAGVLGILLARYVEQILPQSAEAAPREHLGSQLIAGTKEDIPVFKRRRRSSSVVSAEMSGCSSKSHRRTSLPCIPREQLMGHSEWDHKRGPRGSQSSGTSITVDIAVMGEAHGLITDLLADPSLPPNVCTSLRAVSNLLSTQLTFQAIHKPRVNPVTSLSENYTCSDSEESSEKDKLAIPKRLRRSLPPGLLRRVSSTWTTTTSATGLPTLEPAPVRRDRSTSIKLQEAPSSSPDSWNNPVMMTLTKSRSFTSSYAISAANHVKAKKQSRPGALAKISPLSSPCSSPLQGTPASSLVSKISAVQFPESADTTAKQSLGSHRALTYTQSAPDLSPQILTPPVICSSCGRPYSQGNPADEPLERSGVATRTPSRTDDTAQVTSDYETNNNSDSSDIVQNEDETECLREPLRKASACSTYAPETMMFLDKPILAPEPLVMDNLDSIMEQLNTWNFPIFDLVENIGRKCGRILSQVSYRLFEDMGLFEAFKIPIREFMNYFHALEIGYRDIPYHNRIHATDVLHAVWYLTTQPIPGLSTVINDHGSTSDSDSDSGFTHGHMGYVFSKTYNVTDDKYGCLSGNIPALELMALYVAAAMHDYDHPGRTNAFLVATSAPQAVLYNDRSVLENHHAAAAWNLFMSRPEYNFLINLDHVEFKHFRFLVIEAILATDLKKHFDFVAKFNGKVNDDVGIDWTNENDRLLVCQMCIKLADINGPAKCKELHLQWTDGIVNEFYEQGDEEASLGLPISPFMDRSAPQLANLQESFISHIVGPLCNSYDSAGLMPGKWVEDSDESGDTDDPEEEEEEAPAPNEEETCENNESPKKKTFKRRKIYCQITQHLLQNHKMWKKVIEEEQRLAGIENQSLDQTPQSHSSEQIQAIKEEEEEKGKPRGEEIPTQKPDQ

Thromboxane A2 receptor [6] = target: T1, Thromboxane A2 receptor; type: functional, cell-based; remark: listed apart in the source
Progesterone receptor = target: T3, Progesterone receptor (Homo sapiens, UniProt P06401)
T3 sequence (P06401 whole entry): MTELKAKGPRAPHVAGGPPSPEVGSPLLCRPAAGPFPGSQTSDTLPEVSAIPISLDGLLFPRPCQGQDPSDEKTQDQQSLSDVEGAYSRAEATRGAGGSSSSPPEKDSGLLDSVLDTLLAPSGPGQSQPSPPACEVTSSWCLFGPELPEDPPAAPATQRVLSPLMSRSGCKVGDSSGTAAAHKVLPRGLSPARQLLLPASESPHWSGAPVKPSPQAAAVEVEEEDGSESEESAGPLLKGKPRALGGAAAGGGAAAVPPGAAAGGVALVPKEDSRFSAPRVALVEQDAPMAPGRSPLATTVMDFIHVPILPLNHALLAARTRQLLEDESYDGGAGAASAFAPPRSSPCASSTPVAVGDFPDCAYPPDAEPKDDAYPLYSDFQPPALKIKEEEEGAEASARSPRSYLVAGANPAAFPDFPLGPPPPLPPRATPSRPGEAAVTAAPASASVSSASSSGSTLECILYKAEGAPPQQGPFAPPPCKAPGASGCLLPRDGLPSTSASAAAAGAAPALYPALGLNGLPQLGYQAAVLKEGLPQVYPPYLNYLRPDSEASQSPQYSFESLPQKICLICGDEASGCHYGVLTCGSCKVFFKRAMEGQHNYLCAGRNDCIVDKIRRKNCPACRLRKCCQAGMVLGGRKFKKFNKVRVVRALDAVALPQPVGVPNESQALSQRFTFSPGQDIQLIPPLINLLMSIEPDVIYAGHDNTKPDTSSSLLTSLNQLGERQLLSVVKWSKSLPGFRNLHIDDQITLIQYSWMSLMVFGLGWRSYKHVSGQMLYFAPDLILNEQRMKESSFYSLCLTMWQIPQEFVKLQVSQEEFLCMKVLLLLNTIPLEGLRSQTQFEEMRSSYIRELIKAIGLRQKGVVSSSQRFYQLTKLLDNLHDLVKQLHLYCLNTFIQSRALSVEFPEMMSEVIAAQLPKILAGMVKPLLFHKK

[7] = target: T4, Alpha-1A adrenergic receptor (Homo sapiens, UniProt P35348); type: functional, cell-based
T4 sequence (P35348 whole entry): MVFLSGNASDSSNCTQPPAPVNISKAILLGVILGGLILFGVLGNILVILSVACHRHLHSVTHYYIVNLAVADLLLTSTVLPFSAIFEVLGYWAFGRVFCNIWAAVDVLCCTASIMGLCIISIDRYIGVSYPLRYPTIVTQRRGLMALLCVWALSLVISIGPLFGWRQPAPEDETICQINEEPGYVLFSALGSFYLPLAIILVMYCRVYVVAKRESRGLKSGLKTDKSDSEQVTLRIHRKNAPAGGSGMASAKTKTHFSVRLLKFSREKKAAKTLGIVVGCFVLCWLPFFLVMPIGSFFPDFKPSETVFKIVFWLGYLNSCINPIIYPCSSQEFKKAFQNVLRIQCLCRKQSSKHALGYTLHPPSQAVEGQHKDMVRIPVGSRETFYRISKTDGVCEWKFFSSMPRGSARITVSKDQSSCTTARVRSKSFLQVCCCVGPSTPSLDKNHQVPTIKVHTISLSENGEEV

Acetylcholinesterase = Acetylcholinesterase (Homo sapiens, UniProt P22303); type: functional
Acetylcholinesterase, sequence (P22303 whole entry): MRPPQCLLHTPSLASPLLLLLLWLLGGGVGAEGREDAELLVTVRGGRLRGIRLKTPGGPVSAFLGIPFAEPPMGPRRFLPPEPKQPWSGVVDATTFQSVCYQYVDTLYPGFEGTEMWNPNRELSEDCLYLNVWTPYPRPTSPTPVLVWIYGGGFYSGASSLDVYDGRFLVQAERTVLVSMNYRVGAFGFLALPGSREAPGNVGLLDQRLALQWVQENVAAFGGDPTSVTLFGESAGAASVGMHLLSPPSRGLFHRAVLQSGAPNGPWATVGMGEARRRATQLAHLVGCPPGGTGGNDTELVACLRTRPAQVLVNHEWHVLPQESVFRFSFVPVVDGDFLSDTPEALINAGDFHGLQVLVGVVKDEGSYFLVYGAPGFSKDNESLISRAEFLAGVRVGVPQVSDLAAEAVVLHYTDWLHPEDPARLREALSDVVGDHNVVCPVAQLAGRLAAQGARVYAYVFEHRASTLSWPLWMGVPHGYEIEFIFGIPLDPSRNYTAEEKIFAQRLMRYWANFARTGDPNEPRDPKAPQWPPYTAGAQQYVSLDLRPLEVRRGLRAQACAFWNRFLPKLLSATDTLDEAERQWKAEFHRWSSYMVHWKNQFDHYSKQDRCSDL

[8] = target: T2, Prostaglandin G/H synthase 1; type: functional; remark: listed apart in the source
Estrogen receptor = target: T5, Estrogen receptor (Homo sapiens, UniProt P03372)
T5 sequence (P03372 whole entry): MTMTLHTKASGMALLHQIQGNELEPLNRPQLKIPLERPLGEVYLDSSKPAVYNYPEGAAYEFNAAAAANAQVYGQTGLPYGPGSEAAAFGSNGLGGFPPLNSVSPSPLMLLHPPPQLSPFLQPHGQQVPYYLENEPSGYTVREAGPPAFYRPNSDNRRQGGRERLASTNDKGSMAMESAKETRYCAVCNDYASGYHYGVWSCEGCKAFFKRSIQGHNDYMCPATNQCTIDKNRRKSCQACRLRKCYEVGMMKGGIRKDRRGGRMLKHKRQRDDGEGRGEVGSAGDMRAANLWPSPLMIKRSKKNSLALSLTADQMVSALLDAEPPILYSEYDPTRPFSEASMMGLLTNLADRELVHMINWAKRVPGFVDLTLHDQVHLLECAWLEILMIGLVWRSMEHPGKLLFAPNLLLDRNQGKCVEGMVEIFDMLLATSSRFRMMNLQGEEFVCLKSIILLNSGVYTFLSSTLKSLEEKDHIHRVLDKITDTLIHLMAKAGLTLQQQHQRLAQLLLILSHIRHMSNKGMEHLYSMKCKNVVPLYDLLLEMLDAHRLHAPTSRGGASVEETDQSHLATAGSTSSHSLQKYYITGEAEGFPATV
Note: assay procedure not described here.

SMILES | AC50 (Thromboxane A2 receptor [1]) [µM] | AC50 [2] [µM] | AC50 [3] [µM] | AC50 [4] [µM] | AC50 [5] [µM] | AC50 (Thromboxane A2 receptor [6]) [µM] | AC50 (Progesterone receptor) [µM] | AC50 [7] [µM] | AC50 (Acetylcholinesterase) [µM] | AC50 [8] [µM] | AC50 (Estrogen receptor) [µM]
CC(C1=C(CCN(C)C)Cc2ccccc21)c1ccccn1 (stereo unspecified) | > 30 | 13.7 | > 30 | > 30 | > 30 | > 30 | > 30 | 8.8 | > 30 | 19.4 | 
CC(=O)OCC[N+](C)(C)C [ACETYLCHOLINE] | 0.34 | > 30 | > 30 | > 30 | > 30 |  | > 30 | > 30 | > 30 | > 30 | 
C[C@H](N)C(=O)O [ALANINE] | > 30 | > 30 | > 30 | > 30 | > 30 | > 30 | > 30 | > 30 | > 30 | > 30 | 
O=C1c2c(O)cccc2Cc2cccc(O)c21 [ANTHRALIN] | > 30 | > 3 | > 30 | 0.875 | > 30 | > 30 | > 30 | > 30 | > 30 | 14 | 
CO[C@@]1(NC(=O)CSCC#N)C(=O)N2C(C(=O)O)=C(CSc3nnnn3C)CS[C@@H]21 [CEFMETAZOLE] | > 30 |  | > 30 | > 30 | > 30 | > 30 | > 30 |  | > 30 | > 30 | > 30
O=C(O)CC(O)(CC(=O)O)C(=O)O [CITRIC ACID] | > 30 |  | > 30 | > 30 | > 30 | > 30 | > 30 | > 30 | > 30 | > 30 | > 30
CC[C@H]1OC(=O)[C@H](C)[C@@H](O[C@H]2C[C@@](C)(OC)[C@@H](O)[C@H](C)O2)[C@H](C)[C@@H](O[C@@H]2O[C@H](C)C[C@H](N(C)C)[C@H]2O)[C@](C)(OC)C[C@@H](C)C(=O)[C@H](C)[C@@H](O)[C@]1(C)O [CLARITHROMYCIN] | > 30 |  | > 30 | > 30 | > 30 | > 30 | > 30 | > 30 | > 30 | > 30 | > 30
Oc1c(I)cc(Cl)c2cccnc12 [CLIOQUINOL] | > 30 | > 30 | > 30 | > 30 | > 30 | > 10 | > 30 |  | > 30 | > 30 | 
C[C@H]1O[C@@H](O[C@H]2[C@@H](O)C[C@H](O[C@H]3[C@@H](O)C[C@H](O[C@H]4CC[C@@]5(C)[C@H](CC[C@@H]6[C@@H]5CC[C@]5(C)[C@@H](C7=CC(=O)OC7)CC[C@]65O)C4)O[C@@H]3C)O[C@@H]2C)C[C@H](O)[C@@H]1O [DIGITOXIN] | > 30 |  | > 30 | > 30 | > 30 | > 30 | > 30 | > 30 | > 30 | > 30 | > 30
OC(CCCN1CCCCC1)(c1ccccc1)c1ccccc1 [DIPHENIDOL] | > 30 |  | > 30 | > 30 | > 30 | > 30 | > 30 | > 30 | > 30 | > 30 | > 30
O=C(CCCN1CC=C(n2c(=O)[nH]c3ccccc32)CC1)c1ccc(F)cc1 [DROPERIDOL] | > 30 |  | > 30 | > 30 | > 30 | > 30 | > 30 | > 30 | > 30 | > 30 | > 30
CCn1cc(C(=O)O)c(=O)c2cc(F)c(N3CCNCC3)nc21 [ENOXACIN] | > 30 |  | > 30 | > 30 | > 30 | > 30 | > 30 | > 30 | > 30 | > 30 | > 30
CNC(=O)Oc1ccc2c(c1)[C@]1(C)CCN(C)[C@@H]1N2C [PHYSOSTIGMINE] | > 30 |  | > 30 | > 10 | > 30 | > 30 | > 30 | > 30 |  | 4.3 | > 30
COCCCOc1ccnc(C[S+]([O-])c2nc3ccccc3[nH]2)c1C (stereo unspecified) [RABEPRAZOLE] | > 30 |  | > 30 | 0.71 | > 30 | > 30 | > 30 | > 30 | 16.7 | 25.4 | 
O=C(Oc1ccccc1C(=O)O)c1ccccc1O [SALSALATE] | > 30 |  | > 30 | > 30 | > 30 | > 30 | > 30 | > 30 | > 30 | > 30 | > 30
O=C(CCCN1CCC2(CC1)C(=O)NCN2c1ccccc1)c1ccc(F)cc1 [SPIPERONE] |  |  |  |  |  |  |  | 0.081 |  |  | 
c1ccc2[nH]c(-c3cscn3)nc2c1 [THIABENDAZOLE] | > 30 |  | > 30 | > 30 | > 30 | > 30 | > 30 | > 30 | > 30 | > 30 | > 30
C[C@@H]1C[C@H]2[C@@H]3CCC4=CC(=O)C=C[C@]4(C)C3=CC[C@]2(C)[C@H]1C(=O)CN1CCN(c2cc(N3CCCC3)nc(N3CCCC3)n2)CC1 [TIRILAZAD] | > 30 |  | > 30 | 3.8 | > 30 | > 30 | 6.37 | > 30 | > 30 | 3.05 | > 30
